Experimental data: PubChem BioAssay (NCI)
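Tested at 5 concentrations; 48 h exposure; 96-well plates; endpoints linearly interpolated, else capped at highest concentration. GI50: concentration for 50% inhibition of growth. TGI denotes the concentration required for complete inhibition of growth.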 *1 amine or outer side, *2 acyl side, *3 side chain or, on linkers, in order; H or OH if unused. Where a SMILES comes first, the peptide text is derived from it. [ ]: non-standard residue; d: D form. The star is where a group is joined. X12 = NCCCCC(N[*:1])C(=O)CN1CCCC1C(=O)[*:2]; Pentadecanoyl = CCCCCCCCCCCCCCC(=O)*

Experiments:
Assay in all cases: growth of human tumour cells (NCI), 48 h
786-0 renal = system: 786-0 renal
COLO 205 colon = system: COLO 205 colon
EKVX NSCLC = system: EKVX NSCLC
HCT-116 colon = system: HCT-116 colon
HL-60(TB) leukemia = system: HL-60(TB) leukemia
NCI-H226 lung = system: NCI-H226 lung
NCI/ADR-RES ovarian = system: NCI/ADR-RES ovarian
SF-268 CNS = system: SF-268 CNS
SK-MEL-28 melanoma = system: SK-MEL-28 melanoma
UO-31 renal = system: UO-31 renal

| Compound | TGI (786-0 renal) [µM] | TGI (COLO 205 colon) [µM] | TGI (EKVX NSCLC) [µM] | TGI (HCT-116 colon) [µM] | TGI (HL-60(TB) leukemia) [µM] | TGI (NCI-H226 lung) [µM] | TGI (NCI/ADR-RES ovarian) [µM] | TGI (SF-268 CNS) [µM] | TGI (SK-MEL-28 melanoma) [µM] | TGI (UO-31 renal) [µM] | GI50 (COLO 205 colon) [µM] | GI50 (EKVX NSCLC) [µM] | GI50 (HCT-116 colon) [µM] | GI50 (HL-60(TB) leukemia) [µM] | GI50 (NCI-H226 lung) [µM] | GI50 (NCI/ADR-RES ovarian) [µM] | GI50 (SF-268 CNS) [µM] | GI50 (SK-MEL-28 melanoma) [µM] | GI50 (UO-31 renal) [µM] |
| --- | --- | --- | --- | --- | --- | --- | --- | --- | --- | --- | --- | --- | --- | --- | --- | --- | --- | --- | --- |
| CN1CCN(C2CC(=O)c3c(Cl)sc(Cl)c32)CC1 (stereo not drawn) | 21.8 | > 53.4 | > 55.5 | 19.2 | 46 | > 65.3 | > 59 | > 31.1 | 20.2 | 17 |  |  |  |  |  |  |  |  |  |
| CC1CC/C(=C\c2ccc(F)cc2)C2=C1C(c1ccc(F)cc1)NC(=S)N2 (stereo not drawn) | > 100 | > 100 | 79.3 | > 100 | > 100 | > 100 | > 100 | > 100 | > 100 | > 100 |  |  |  |  |  |  |  |  |  |
| CC(C)c1cc(C(C)C)c(B(c2ccccc2)c2ccccc2)c(C(C)C)c1Br | > 100 | > 100 | > 100 | > 100 | > 100 | > 100 | > 100 | > 100 | > 100 | > 100 |  |  |  |  |  |  |  |  |  |
| CCCCCCCCCCCCCCC(=O)NC(CCCCN)C(=O)CN1CCCC1C(=O)NCC(=O)NC(Cc1ccccc1)C(=O)N1CCCC1C(=O)NC(CO)C(=O)NC(Cc1ccc(O)cc1)C(=O)NC(CCCCN)C(=O)NC(CC(C)C)C(=O)NC(CCCN=C(N)N)C(=O)N1CCCC1C(=O)NCC(N)=O (stereo not drawn) (Pentadecanoyl-[X12]GFPSYKLRPG-NH2; configuration not given here) |  | 33.8 | 60.5 | 29.6 | 90.8 | 38.6 | 43.7 | 52.9 | 60.6 | 60.2 | 15.6 | 25.9 | 14.2 | 27.3 | 17.8 | 20.6 | 22.4 | 25.7 | 22.6 |
| CC(C)(CO)Nc1c(O)c2c(c(O)c1Cl)C(=O)C=CC2=O | 2.85 | 2.56 | 3.82 | 3.07 | 0.561 | 4.26 | 3.65 | 6.03 | 3.32 | 2.88 |  |  |  |  |  |  |  |  |  |
| NC(=O)c1ccc(S(=O)(=NS(=O)(=O)c2ccccc2)c2ccc(C(N)=O)cc2)cc1 | > 100 | > 100 | > 100 | > 100 | > 100 | > 100 | > 100 | > 100 | > 100 | > 100 |  |  |  |  |  |  |  |  |  |
| CCOC(=O)CCC1(C(=O)O[C@@H]2C[C@H](C)CC[C@H]2C(C)C)CCCCC1=O (stereo partly drawn) | > 100 | > 100 | > 100 | > 100 | 57.6 | > 100 | > 100 | > 100 | > 100 | > 100 |  |  |  |  |  |  |  |  |  |
| C/C(=N/NC(=O)c1ccccc1Nc1ccccc1C(=O)N/N=C(\C)c1ccc(C)cc1)c1ccc(C)cc1 | > 100 | > 100 | > 100 | > 100 | > 100 | > 100 | > 100 | > 100 | > 100 | > 100 |  |  |  |  |  |  |  |  |  |
| C/C(=N\Nc1nc2ccccc2n1C)c1ccncn1 | 20.3 | > 100 | > 47.7 | > 39.8 | 0.0439 | > 45.7 | 0.458 | > 100 | 0.168 | 22.9 |  |  |  |  |  |  |  |  |  |
| C[S+](C)C1(c2ccccc2)C(=O)c2ccccc2C1=O | > 100 | > 100 | 76.9 | > 100 | > 31.6 | > 100 | > 100 | > 100 | > 100 | > 56.5 |  |  |  |  |  |  |  |  |  |
